Measured values taken from article PMC8165160, “Substrate Specificities and Inhibition Pattern of the Solute Carrier Family 10 Members NTCP, ASBT and SOAT” (Frontiers in Molecular Biosciences, 2021).
Counter-ions that a name gives are not always drawn. Like-named read-outs stand apart in the source and are kept apart here.

Experiments:
SOAT [1] = target: T1, SOAT (Homo sapiens, UniProt Q3KNW5); set-up: method as in Geyer et al. (2007); conditions: uptake via SOAT, same SOAT-HEK293 cell line; ref Geyer et al. (2007); cited from earlier work
T1 construct: The full-length open reading frames of NTCP, ASBT, and SOAT were cloned; expressed in transfected cells; host or cells: Flp-In T-REX HEK293 (SOAT-HEK293), tetracycline-induced
T1 sequence (Q3KNW5 1-377): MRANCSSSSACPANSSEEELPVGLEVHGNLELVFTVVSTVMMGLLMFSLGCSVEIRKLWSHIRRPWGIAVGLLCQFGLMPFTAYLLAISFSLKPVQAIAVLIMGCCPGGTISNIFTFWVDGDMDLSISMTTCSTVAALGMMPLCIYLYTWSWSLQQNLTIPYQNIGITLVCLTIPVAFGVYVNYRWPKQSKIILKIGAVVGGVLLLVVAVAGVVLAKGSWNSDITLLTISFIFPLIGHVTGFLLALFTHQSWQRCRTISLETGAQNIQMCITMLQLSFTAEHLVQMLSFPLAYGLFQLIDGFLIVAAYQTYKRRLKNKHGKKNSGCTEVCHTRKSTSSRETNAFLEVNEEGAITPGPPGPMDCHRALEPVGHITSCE

ASBT = target: T2, ASBT (Homo sapiens, UniProt Q12908); test: Transport inhibition in ASBT-HEK293 cells; format: cell-based; conditions: substrate inhibitors, 1 min after 5 min preincubation
T2 construct: The full-length open reading frames of NTCP, ASBT, and SOAT were cloned; expressed in transfected cells; host or cells: Flp-In T-REX HEK293 (ASBT-HEK293), tetracycline-induced
T2 sequence (Q12908 1-348): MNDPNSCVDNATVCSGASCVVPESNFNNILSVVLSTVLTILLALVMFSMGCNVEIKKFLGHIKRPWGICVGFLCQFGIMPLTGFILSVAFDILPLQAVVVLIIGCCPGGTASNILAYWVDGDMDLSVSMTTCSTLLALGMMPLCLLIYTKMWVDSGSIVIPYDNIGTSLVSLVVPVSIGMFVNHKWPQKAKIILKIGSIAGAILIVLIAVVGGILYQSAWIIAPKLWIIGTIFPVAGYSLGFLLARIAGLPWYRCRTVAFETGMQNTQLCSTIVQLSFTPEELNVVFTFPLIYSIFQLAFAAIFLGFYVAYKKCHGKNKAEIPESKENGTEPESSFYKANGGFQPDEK
Protocol: Cells were washed three times with PBS and were preincubated with the respective inhibitor in sodium transport buffer for 5 min at 37°C. Uptake was initiated by adding the respective radiolabeled substrate to the well and incubating for a fixed time as indicated in the figures at 37°C. Transport was terminated by removing the transport buffer and washing five-times with ice-cold PBS. Cell monolayers were lysed in 1 N NaOH with 0.1% SDS and the cell-associated radioactivity and protein content was determined as described above. For uptake inhibition with the myr-preS1 peptide the sodium transport buffer contained additionally MEM-amino acid solution (ThermoFisher) at 1:50 dilution.
All transport or inhibition graphs were generated with GraphPad Prism 6.0 (GraphPad). Determination of IC50 values was done by nonlinear regression analysis using the equation log (inhibitor) vs. response settings. If not stated otherwise in the legends all data represent means ± SD of at least triplicate determinations of representative experiments.
FIGURE 3 Inhibition of NTCP, ASBT, and SOAT with substrate inhibitors. Transport of [^3H]TC, [^3H]TLC, and [^3H]DHEAS was analyzed in NTCP-HEK293, ASBT-HEK293, and SOAT-HEK293 cells in the presence of the substrate inhibitors TC, TLC, and DHEAS at increasing concentrations ranging from 100 nM till 1000 µM. After 5 min of preincubation with the respective inhibitory compound, 200 nM [^3H]TLC, [^3H]TC or [^3H]DHEAS were added for additional 1 min and the cell lysates were analyzed by liquid scintillation counting. Unspecific uptake of HEK293-FlpIn cells was set to 0%. Carrier-specific uptake without inhibitor was set to 100%.
Transport of [^3H]TC, [^3H]TLC, and [^3H]DHEAS was analyzed in NTCP-HEK293, ASBT-HEK293, and SOAT-HEK293 cells in the presence of different supposed non-substrate triterpenoid inhibitors as indicated at increasing concentrations ranging from 100 nM till 1000 µM. After 5 min of preincubation with the respective inhibitory compound, 1 µM [^3H]TLC, [^3H]TC or [^3H]DHEAS were added for additional 10 min at 37°C and the cell lysates were analyzed by liquid scintillation counting. Experiments performed without inhibitor were set to 100%. Means of negative controls were subtracted to calculate net transport rates (expressed as percentage of control). Data represent means ± SD of quadruplicate determinations of representative experiments.

HDV = conditions: NTCP expressing HepG2 hepatoma cells, trans-inhibitory effect; ref Lowjaga et al., 2021; cited from earlier work
SOAT [2] = target: T1, SOAT; test: Transport kinetics (concentration-dependent uptake) in SOAT-HEK293 cells; format: cell-based; conditions: uptake via SOAT, 1 min, 37°C
Protocol: Cells were washed three times with phosphate buffered saline (PBS) (137 mM NaCl, 2.7 mM KCl, 1.5 mM KH2PO4, 7.3 mM Na2HPO4, pH 7.4, 37°C). Afterward, cells were preincubated at 37°C with sodium transport buffer (containing 142.9 mM NaCl, 4.7 mM KCl, 1.2 mM MgSO4, 1.2 mM KH2PO4, 1.8 mM CaCl2, and 20 mM HEPES (all chemicals from Sigma-Aldrich), adjusted to pH 7.4), or with choline transport buffer (equimolar substitution of sodium chloride with choline chloride). Uptake experiments were initiated by replacing the preincubation buffer by 500 μL transport buffer containing the radiolabeled test compound and were performed at 37°C. Transport was terminated by removing the transport buffer and washing five-times with ice-cold PBS. Cell monolayers were lysed in 1 N NaOH with 0.1% SDS and the cell-associated radioactivity was determined by liquid scintillation counting. Protein content of individual wells was determined by Lowry assay as reported before ([Geyer et al., 2007]).
FIGURE 2 NTCP, ASBT, and SOAT transport kinetics. Concentration-dependent uptake was analyzed in NTCP-HEK293, ASBT-HEK293, and SOAT-HEK293 cells for the indicated substrates at increasing substrate concentrations. […] Uptake was analyzed for 1 min at 37°C. Afterward, the medium was removed and each cell monolayer was washed and processed to determine the protein content and cell-associated radioactivity. […]

| Structure (SMILES) | Apparent K m (SOAT [1]) [µM] | V max (SOAT [1]) [pmol/mg protein/min] | IC50 (ASBT; ASBT IC50, substrate [3H]TC, 200 nM [3H]TC) [µM] | IC50 (ASBT; ASBT IC50, substrate [3H]TLC, 200 nM [3H]TLC) [µM] | IC50 (ASBT; 200 nM [3H]TC, read-out: ASBT IC50, substrate [3H]TC) [µM] | IC50 (ASBT; 200 nM [3H]TLC, read-out: ASBT IC50, substrate [3H]TLC) [µM] | in vitro HDV infection (HDV) | Apparent K m (SOAT [2]) [µM] | V max (SOAT [2]) [pmol/mg protein/min] |
| --- | --- | --- | --- | --- | --- | --- | --- | --- | --- |
| C[C@]12CC[C@H](OS(=O)(=O)O)CC1=CC[C@@H]1[C@@H]2CC[C@]2(C)C(=O)CC[C@@H]12 [DHEAS, Dehydroepiandrosterone sulfate] | 28.7 ± 3.9 | 1899 ± 81 | 453 | > 1000 | – | – | – | – | – |
| C[C@H](CCC(=O)NCCS(=O)(=O)O)[C@H]1CC[C@H]2[C@@H]3CC[C@@H]4C[C@H](O)CC[C@]4(C)[C@H]3CC[C@]12C [Taurolithocholic acid] | – | – | – | – | 1.9 | 4 | inhibited in vitro HDV infection | 19.3 ± 6.8 | 617 ± 57 |
